Laboratory results published in patent US4418192A, “Anthracyclinone trisaccharide compounds” (priority 1981, dated 1983).
Values after ≈ are worked out from the molar mass of the structure shown. Like-named read-outs stand apart in the source and are kept apart here.

Experiments:
L 1210 leukemia = assay: Antitumor activity: prolongation of survival time of CDF1 mice after intraperitoneal transplantation of L 1210 leukemia cells; format: in vivo; settings: Mus musculus, L1210, ip, 720 h, read-out: Prolongation rate of the survival time (T/C)
Method: After intraperitoneal transplantation of L 1210 leukemia cells (1×10^5 cells/mouse), 0.25 ml/animal of solutions of one of the anthracyclinone glycosides (HCl salts) of the present invention in physiological saline was intraperitoneally injected to CDF1 mice every day for 9 days.

L 1210 leukemia cells = assay: Inhibition of growth of L 1210 leukemia cells in culture; format: cell-based; settings: Mus musculus, L1210, 48 h, read-out: IC50 Cell growth
Method: L 1210 culture cells (5×10^4 cells/ml; final cell concentration) were inoculated to RPMI 1640 medium (Roswell Park Memorial Institute 1640 medium) containing 20% calf serum and then one of the anthracyclinone glycosides listed in Table 4 was added to make a final concentration of 0.1-5 μg/ml. After incubation at 37° C. for 2 days in a CO2 incubator, the number of cells was counted. Based on these counts, the 50% inhibitory concentration (IC50) of each test compound on the growth of L 1210 leukemia cells was calculated relative to the control test.

[1] = tested on: DNA synthesis in L 1210 cells; assay: Inhibition of DNA synthesis in L 1210 cells (radioactive precursor incorporation); format: cell-based; settings: Mus musculus
Method: (§1) For measurement of IC50 on the synthesis of nucleic acids, 5×10^5 L 1210 cells/ml were pre-cultured at 37° C. for 1-2 hours in RPMI 1640 medium containing 10% calf serum in a CO2 incubator. One of the anthracyclinone glycosides listed in Table 4 was added and incubated for a further 15 minutes. Then 0.05 μCi/ml of ^14 C-uridine or ^14 C-thymidine was added and incubated for a further 60 minutes. At the end of incorporation of the radioactive compound, 10% trichloroacetic acid was poured into the cell suspension for termination of the reaction as well as forced precipitation. The acid-insoluble fraction was collected, rinsed three times with 5% trichloroacetic acid and then dissolved in formic acid for measurement of radioactivity. Based on the radioactivities of the test and control runs, IC50 was calculated.

[2] = tested on: RNA synthesis in L 1210 cells; assay: Inhibition of RNA synthesis in L 1210 cells (radioactive precursor incorporation); format: cell-based; settings: Mus musculus
Method: as §1

[3] = in words, cited from earlier work
[4] = L1210, read-out: IC50 DNA synthesis
[5] = L1210, read-out: IC50 RNA synthesis
[6] = L 1210 cells, RPMI 1640 with 20% calf serum, 37° C., 2 days
[7] = L1210, L 1210 cells, 15 min pre-incubation, 60 min with radioactive precursor (^14 C-uridine or ^14 C-thymidine), read-out: IC50 DNA synthesis
[8] = L1210, L 1210 cells, 15 min pre-incubation, 60 min with radioactive precursor (^14 C-uridine or ^14 C-thymidine), read-out: IC50 RNA synthesis

SMILES | response vs control in vivo at 2.5 mg/kg (L 1210 leukemia) | response vs control in vivo at 5 mg/kg (L 1210 leukemia) | IC50 (L 1210 leukemia cells; [6]) | IC50 [1, 7] | IC50 [2, 8] | response vs control in vivo at 1.25 mg/kg (L 1210 leukemia) | other results
CC[C@@]1(O)C[C@H](O[C@H]2C[C@H](N(C)C)[C@H](O[C@H]3C[C@H](OC(C)=O)[C@H](O[C@H]4CCC(=O)[C@H](C)O4)[C@H](C)O3)[C@H](C)O2)c2c(cc3c(c2O)C(=O)c2c(O)cccc2C3=O)[C@H]1C(=O)OC [3"-O--acetyl AKN--RDC] | 114% | 168% | – | – | – | – | response vs control in vivo at 7.5 mg/kg (L 1210 leukemia): 186%; response vs control in vivo at 10 mg/kg (L 1210 leukemia): 180%; IC50 (L 1210 leukemia cells): 0.06 µg/mL (≈ 0.0703 µM); IC50 [1, 4]: 1.3 µg/mL (≈ 1.52 µM); IC50 [2, 5]: 0.1 µg/mL (≈ 0.117 µM)
COc1cccc2c1C(=O)c1c(O)c3c(c(O)c1C2=O)C[C@@](O)(C(=O)CO)C[C@@H]3O[C@H]1C[C@H](N(C)C)[C@H](O[C@H]2C[C@H](OC(C)=O)[C@H](O[C@H]3CCC(=O)[C@H](C)O3)[C@H](C)O2)[C@H](C)O1 [3"-O--acetyl AMN--RDC] | – | – | < 0.01 µg/mL | 0.32 µg/mL (≈ 0.374 µM) | 0.012 µg/mL (≈ 0.014 µM) | – | response vs control in vivo at 0.32 mg/kg (L 1210 leukemia; 0.32 mg/kg/day, i.p. every day for 9 days, HCl salts, L 1210 i.p. in CDF1 mice, control = 100): 144%; response vs control in vivo at 0.63 mg/kg (L 1210 leukemia; 0.63 mg/kg/day, i.p. every day for 9 days, HCl salts, L 1210 i.p. in CDF1 mice, control = 100): 165%; response vs control in vivo at 1.25 mg/kg (L 1210 leukemia; 1.25 mg/kg/day, i.p. every day for 9 days, HCl salts, L 1210 i.p. in CDF1 mice, control = 100): 140%; response vs control in vivo at 2.5 mg/kg (L 1210 leukemia; 2.5 mg/kg/day, i.p. every day for 9 days, HCl salts, L 1210 i.p. in CDF1 mice, control = 100): 96%
CC(=O)O[C@H]1C[C@H](O[C@@H]2[C@H](C)O[C@@H](O[C@H]3C[C@](O)(C(C)=O)Cc4c(O)c5c(c(O)c43)C(=O)c3c(O)cccc3C5=O)C[C@@H]2N(C)C)O[C@@H](C)[C@H]1O[C@H]1CCC(=O)[C@H](C)O1 [3"-O--acetyl CMN--RDC] | 159% | 208% | < 0.01 µg/mL | 0.36 µg/mL (≈ 0.436 µM) | 0.04 µg/mL (≈ 0.0484 µM) | 124% | response vs control in vivo at 7.5 mg/kg (L 1210 leukemia): 214%; response vs control in vivo at 10 mg/kg (L 1210 leukemia): 165%
COc1cccc2c1C(=O)c1c(O)c3c(c(O)c1C2=O)C[C@@](O)(C(C)=O)C[C@@H]3O[C@H]1C[C@H](N(C)C)[C@H](O[C@H]2C[C@H](OC(C)=O)[C@H](O[C@H]3CCC(=O)[C@H](C)O3)[C@H](C)O2)[C@H](C)O1 [3"-O--acetyl DMN--RDC] | 180% | 210% | < 0.01 µg/mL | 0.3 µg/mL (≈ 0.357 µM) | 0.02 µg/mL (≈ 0.0238 µM) | 144% | response vs control in vivo at 0.63 mg/kg (L 1210 leukemia): 114%; response vs control in vivo at 7.5 mg/kg (L 1210 leukemia): 164%
COc1cccc2c1C(=O)c1c(O)c3c(c(O)c1C2=O)C[C@@](O)(C(=O)COC(C)=O)C[C@@H]3O[C@H]1C[C@H](N(C)C)[C@H](O[C@H]2C[C@H](OC(C)=O)[C@H](O[C@H]3CCC(=O)[C@H](C)O3)[C@H](C)O2)[C@H](C)O1 [14,3"-O--diacetyl AMN--RDC] | – | – | – | – | – | – | IC50 (L 1210 leukemia cells): < 0.01 µg/mL; IC50 [1, 4]: 0.5 µg/mL (≈ 0.557 µM); IC50 [2, 5]: 0.014 µg/mL (≈ 0.0156 µM)
COc1cccc2c1C(=O)c1c(O)c3c(c(O)c1C2=O)C[C@@](O)(C(=O)COC(=O)Cc1ccccc1)C[C@@H]3O[C@H]1C[C@H](N(C)C)[C@H](O[C@H]2C[C@H](OC(C)=O)[C@H](O[C@H]3CCC(=O)[C@H](C)O3)[C@H](C)O2)[C@H](C)O1 [14-O--phenylacetyl-3"-O--acetyl AMN--RDC] | – | – | 0.03 µg/mL (≈ 0.0308 µM) | 4 µg/mL (≈ 4.11 µM) | 0.15 µg/mL (≈ 0.154 µM) | – | –
COc1cccc2c1C(=O)c1c(O)c3c(c(O)c1C2=O)C[C@@](O)(C(=O)CO)C[C@@H]3O[C@H]1C[C@H](N(C)C)[C@H](O[C@H]2C[C@H](O)[C@H](O[C@H]3CCC(=O)[C@H](C)O3)[C@H](C)O2)[C@H](C)O1 [AMN--RDC] | 145% | 130% | < 0.01 µg/mL | 0.15 µg/mL (≈ 0.184 µM) | 0.011 µg/mL (≈ 0.0135 µM) | 158% | response vs control in vivo at 0.32 mg/kg (L 1210 leukemia): 114%; response vs control in vivo at 0.63 mg/kg (L 1210 leukemia): 142%
CC[C@@]1(O)C[C@H](O[C@H]2C[C@H](N(C)C)[C@H](O[C@H]3C[C@H](O)[C@H](O[C@H]4CCC(=O)[C@H](C)O4)[C@H](C)O3)[C@H](C)O2)c2c(cc3c(c2O)C(=O)c2c(O)cccc2C3=O)[C@H]1C(=O)OC [Aclacinomycin A, reference compound] | – | – | 0.03 µg/mL (≈ 0.037 µM) | 0.65 µg/mL (≈ 0.801 µM) | 0.085 µg/mL (≈ 0.105 µM) | – | cardio-toxicity ([3]; U.S. Pat. No. 3,988,315 and Jap. P. No. 864,851): less cardio-toxic
COc1cccc2c1C(=O)c1c(O)c3c(c(O)c1C2=O)C[C@@](O)(C(=O)CO)C[C@@H]3O[C@H]1C[C@H](N)[C@H](O)[C@H](C)O1 [Adriamycin, reference compound] | – | – | 0.018 µg/mL (≈ 0.0331 µM) | 1.25 µg/mL (≈ 2.3 µM) | 0.49 µg/mL (≈ 0.902 µM) | – | side effects ([3]; clinical use as antitumor chemotherapeutics): often cause undesirable side effects
CC(=O)[C@]1(O)Cc2c(O)c3c(c(O)c2[C@@H](O[C@H]2C[C@H](N(C)C)[C@H](O[C@H]4C[C@H](O)[C@H](O[C@H]5CCC(=O)[C@H](C)O5)[C@H](C)O4)[C@H](C)O2)C1)C(=O)c1c(O)cccc1C3=O [CMN--RDC] | 160% | 180% | < 0.01 µg/mL | 0.19 µg/mL (≈ 0.242 µM) | 0.035 µg/mL (≈ 0.0447 µM) | 132% | response vs control in vivo at 7.5 mg/kg (L 1210 leukemia): 145%
COc1cccc2c1C(=O)c1c(O)c3c(c(O)c1C2=O)C[C@@](O)(C(C)=O)C[C@@H]3O[C@H]1C[C@H](N)[C@H](O[C@H]2C[C@H](O)[C@H](O[C@H]3CCC(=O)[C@H](C)O3)[C@H](C)O2)[C@H](C)O1 [DMN--DaDC] | – | – | 0.09 µg/mL (≈ 0.117 µM) | 1.15 µg/mL (≈ 1.49 µM) | 0.165 µg/mL (≈ 0.214 µM) | – | –
CN[C@H]1C[C@H](O[C@H]2C[C@](O)(C(C)=O)Cc3c(O)c4c(c(O)c32)C(=O)c2c(OC)cccc2C4=O)O[C@@H](C)[C@H]1O[C@H]1C[C@H](O)[C@H](O[C@H]2CCC(=O)[C@H](C)O2)[C@H](C)O1 [DMN--DmDC] | – | – | – | – | – | – | IC50 (L 1210 leukemia cells): 0.023 µg/mL (≈ 0.0293 µM); IC50 [1, 4]: 0.62 µg/mL (≈ 0.791 µM); IC50 [2, 5]: 0.065 µg/mL (≈ 0.0829 µM)
COc1cccc2c1C(=O)c1c(O)c3c(c(O)c1C2=O)C[C@@](O)(C(C)=O)C[C@@H]3O[C@H]1C[C@H](N(C)C)[C@H](O[C@H]2C[C@H](O)[C@H](O[C@H]3CCC(=O)[C@H](C)O3)[C@H](C)O2)[C@H](C)O1 [DMN--RDC] | 187% | 126% | < 0.01 µg/mL | 0.17 µg/mL (≈ 0.213 µM) | 0.017 µg/mL (≈ 0.0213 µM) | 184% | response vs control in vivo at 0.32 mg/kg (L 1210 leukemia): 126%; response vs control in vivo at 0.63 mg/kg (L 1210 leukemia): 135%
COc1cccc2c1C(=O)c1c(O)c3c(c(O)c1C2=O)C[C@@](O)(C(C)=O)C[C@@H]3O[C@H]1C[C@H](N(C)C)[C@H](O[C@H]2C[C@H](O)[C@H](O)[C@H](C)O2)[C@H](C)O1 [DMN--RD] | 165% | 120% | < 0.01 µg/mL | 0.28 µg/mL (≈ 0.408 µM) | 0.04 µg/mL (≈ 0.0583 µM) | 172% | response vs control in vivo at 0.32 mg/kg (L 1210 leukemia): 114%; response vs control in vivo at 0.63 mg/kg (L 1210 leukemia): 144%
COc1cccc2c1C(=O)c1c(O)c3c(c(O)c1C2=O)C[C@@](O)(C(C)=O)C[C@@H]3O[C@H]1C[C@H](N)[C@H](O)[C@H](C)O1 [Daunomycin, reference compound] | – | – | 0.036 µg/mL (≈ 0.0682 µM) | 0.3 µg/mL (≈ 0.569 µM) | 0.18 µg/mL (≈ 0.341 µM) | – | –
